Laboratory results taken from patent publication EP0765868A1, “Substituted bezoyl guanidines, process for their preparation, their use as antiarrhythmics or diagnostic agent as well as pharmaceuticals containing them” (HOECHST AKTIENGESELLSCHAFT, priority 1995, dated 1997).
Structures can show the parent of a compound that is named as a salt.

Columns and labels:
[1] = biological target: T1, Na^+/H^+-Exchanger (Oryctolagus cuniculus, UniProt P23791); assay: Inhibition of the Na+/H+ exchanger of rabbit erythrocytes (amiloride-sensitive Na+ influx, flame photometry); assay type: cell-based, Kaninchen; conditions: Kaninchenerythrocyten; hyperosmolar salt-sucrose medium, pH 7,4, 37°C
T1 construct: den Na^+-Influx in die Erythrocyten via Na^+/H^+-Austausch flammenphotometrisch bestimmen zu können; from tissue; host or cells: Erythrocytes in whole blood from the ear arteries of cholesterol-fed White New Zealand rabbits
Description: Inhibition des Na^+/H^+-Exchangers von Kaninchenerythrocyten
Weiße Neuseeland-Kaninchen (Ivanovas) erhielten eine Standard-Diät mit 2% Cholesterin für sechs Wochen, um den Na^+/H^+-Austausch zu aktivieren und so den Na^+-Influx in die Erythrocyten via Na^+/H^+-Austausch flammenphotometrisch bestimmen zu können. Das Blut wurde den Ohrarterien entnommen und durch 25 IE Kalium-Heparin ungerinnbar gemacht. Ein Teil jeder Probe wurde zur Doppelbestimmung des Hämatokrits durch Zentrifugieren benutzt. Aliquots von jeweils 100 µl dienten zur Messung des Na^+-Ausgangsgehalts der Erythrocyten.
Um den Amilorid-sensitiven Natrium-Influx zu bestimmen, wurden 100 µl jeder Blutprobe in jeweils 5 ml eines hyperosmolaren Salz-Sucrose-Mediums (mmol/l: 140 NaCl, 3 KCl, 150 Sucrose, 0,1 Ouabain, 20 Tris-hydroxymethylaminomethan) bei pH 7,4 und 37°C inkubiert. Die Erythrocyten wurden danach dreimal mit eiskalter MgCl2-Ouabain-Lösung (mmol/l: 112 MgCl2, 0,1 Ouabain) gewaschen und in 2,0 ml destilliertem Wasser hämolysiert. Der intrazelluläre Natriumgehalt wurde flammenphotometrisch bestimmt.
Der Na^+-Nettoinflux wurde aus der Differenz zwischen Natrium-Ausgangswerten und dem Natriumgehalt der Erythrocyten nach Inkubation errechnet. Der Amilorid-hemmbare Natrium-Influx ergab sich aus der Differenz des Natriumgehalts der Erythrocyten nach Inkubation mit und ohne Amilorid 3 x 10^-4 mol/l. Auf diese Weise wurde auch bei den erfindungsgemäßen Verbindungen verfahren.

[2] = test system: Rattenherzen; conditions: isolated animal hearts (rat); Eur. Heart J. 9 (suppl.1): 167 (1988); cited from earlier work

T1 sequence (P23791 whole entry): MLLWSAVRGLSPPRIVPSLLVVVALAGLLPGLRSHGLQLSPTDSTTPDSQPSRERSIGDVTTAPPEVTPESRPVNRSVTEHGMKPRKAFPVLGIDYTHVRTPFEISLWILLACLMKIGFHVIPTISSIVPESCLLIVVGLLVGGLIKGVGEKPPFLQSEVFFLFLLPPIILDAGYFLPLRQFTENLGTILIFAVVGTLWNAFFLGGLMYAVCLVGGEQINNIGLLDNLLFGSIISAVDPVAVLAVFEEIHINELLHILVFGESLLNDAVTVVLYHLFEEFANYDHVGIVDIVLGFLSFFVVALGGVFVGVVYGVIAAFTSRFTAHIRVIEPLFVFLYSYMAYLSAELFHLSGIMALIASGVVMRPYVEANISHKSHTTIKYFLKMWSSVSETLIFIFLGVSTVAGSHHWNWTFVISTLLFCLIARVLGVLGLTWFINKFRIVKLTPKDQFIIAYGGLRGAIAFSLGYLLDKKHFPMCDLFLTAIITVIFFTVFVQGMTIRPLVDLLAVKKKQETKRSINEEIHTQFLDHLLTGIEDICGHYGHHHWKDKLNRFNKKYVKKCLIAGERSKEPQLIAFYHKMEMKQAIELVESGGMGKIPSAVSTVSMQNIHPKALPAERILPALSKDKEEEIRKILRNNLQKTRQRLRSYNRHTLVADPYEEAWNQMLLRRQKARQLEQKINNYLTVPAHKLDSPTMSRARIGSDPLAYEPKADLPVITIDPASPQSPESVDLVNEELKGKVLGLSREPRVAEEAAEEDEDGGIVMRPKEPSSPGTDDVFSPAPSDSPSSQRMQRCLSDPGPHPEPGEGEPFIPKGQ

Row | Structure (SMILES) | IC50 [1] | künstlich ausgelöstes Kammerflimmern [2]
1 | CC(C)c1ccc(C(=O)N=C(N)N)cc1C(O)(O)C(F)(F)F [Beispiel 3, 4-Isopropyl-3-(1',1'-bis-hydroxy-2',2',2'-trifluor)-ethylbenzoylguanidin-hydrochlorid] | 0.3 µM | –
2 | N=C(N)NC(=O)c1nc(Cl)c(N)nc1N [Amilorid] | – | völlig unterdrückt
3 | CCN(c1nc(N)c(C(=O)NC(=N)N)nc1Cl)C(C)C [Ethylisopropylamilorid] | – | Noch potenter als Amilorid
4 | NC(N)=NC(=O)c1ccc(F)c(C(O)(O)C(F)(F)F)c1 [Beispiel 2, 4-Fluor-3-(1',1'-Bishydroxy-2',2',2'-trifluor)ethyl-benzoylguanidinhydrochlorid] | 1 µM | –
5 | NC(N)=NC(=O)c1ccc(C(O)(O)C(F)(F)F)cc1 [Beispiel 1, 4-(1',1'-Bishydroxy-2',2',2'-trifluor)-ethyl-benzoylguanidinhydrochlorid] | 1.5 µM | –
